In brackets after ≈: the same amount, converted by molar mass.
Assays:
Assay in all cases: ≥ marks a high value that may be exact or a test limit, other limits are often not marked, values filed in µg/mL are converted to µM
[1] = tested on: Candida albicans NCTC 1467
[2] = tested on: Enterococcus faecalis NCTC 12697
[3] = tested on: Escherichia coli NCTC 10418
[4] = tested on: Klebsiella pneumoniae ATCC 43816
[5] = tested on: Pseudomonas aeruginosa ATCC 27853
[6] = tested on: Staphylococcus aureus NCTC 10788
[7] = tested on: Staphylococcus aureus NCTC 12493
[8] = tested on: Staphylococcus aureus SH1000
[9] = tested on: Acinetobacter baumannii ATCC 19606
[10] = tested on: Escherichia coli ATCC 25922
[11] = tested on: Klebsiella pneumoniae ATCC 700603
[12] = tested on: Klebsiella pneumoniae ATCC BAA-2146
[13] = tested on: Pseudomonas aeruginosa FADDI-PA070
[14] = tested on: Staphylococcus aureus ATCC 43300
[15] = tested on: Staphylococcus aureus NRS 17
[16] = tested on: Staphylococcus aureus NRS 1
[17] = tested on: Staphylococcus aureus VRSA10
[18] = tested on: Staphylococcus aureus VRSA1
[19] = tested on: Streptococcus pneumoniae ATCC 700677
Escherichia coli AB94012 = tested on: Escherichia coli AB94012
[20] = tested on: Pseudomonas aeruginosa ATCC 9027
[21] = tested on: Staphylococcus aureus AB6538
[22] = tested on: Staphylococcus aureus AB94004
Escherichia coli D31 = tested on: Escherichia coli D31
[23] = tested on: Pseudomonas aeruginosa ATCC 10145
[24] = tested on: Salmonella enterica subsp. enterica serovar Typhimurium ATCC 700931
[25] = tested on: Staphylococcus aureus ATCC 27660
[26] = tested on: Staphylococcus epidermidis ATCC 14990
[27] = tested on: Klebsiella pneumoniae ATCC 13883
[28] = tested on: Staphylococcus aureus USA 300 LAC
[29] = tested on: Escherichia coli BW25113 ΔsbmA
Escherichia coli BW25113 = tested on: Escherichia coli BW25113
Escherichia coli = tested on: Escherichia coli
[30] = tested on: Staphylococcus aureus ATCC 25923
[31] = tested on: Bacillus megaterium ATCC 10778
Candida albicans MDM8 = tested on: Candida albicans MDM8
[32] = tested on: Candida tropicalis IOC 4560
[33] = tested on: Enterobacter cloacae beta-12
Escherichia coli SBS 363 = tested on: Escherichia coli SBS 363
Micrococcus luteus A270 = tested on: Micrococcus luteus A270
[34] = tested on: Serratia marcescens ATCC 4112
[35] = tested on: Staphylococcus aureus ATCC 29213
[36] = tested on: Staphylococcus epidermidis ATCC 12228

Work on `CSCC[C@H](NC(=O)[C@H](CCC(=O)O)NC(=O)[C@H](CCCCN)NC(=O)[C@H](CC(C)C)NC(=O)[C@H](CCCCN)NC(=O)CNC(=O)[C@H](Cc1c[nH]c2ccccc12)NC(=O)[C@H](CC(C)C)NC(=O)[C@@H](N)CO)C(=O)N[C@@H](CC(C)C)C(=O)N[C@@H](C)C(=O)N[C@@H](CCCCN)C(=O)N[C@@H](C)C(=O)NCC(=O)N[C@@H](CCCCN)C(=O)N[C@@H](C)C(=O)N[C@H](C(=O)N[C@@H](C)C(=O)N[C@@H](CC(N)=O)C(=O)N[C@@H](C)C(=O)N[C@H](C(=O)N[C@@H](CC(N)=O)C(=O)NCC(=O)N[C@@H](CC(C)C)C(=O)N[C@@H](C)C(=O)N[C@@H](CC(N)=O)C(=O)N[C@@H](CCC(N)=O)C(N)=O)C(C)C)C(C)C` [SLWGKLKEMLAKAGKAVANAVNGLANQ] yielded an MIC [1] of 16 µM (≈ 44.5 µg/mL), an MIC [2] of 8 µM (≈ 22.3 µg/mL) and an MIC [3] of 8 µM (≈ 22.3 µg/mL). For the same compound, the MIC [4] was 8 µM (≈ 22.3 µg/mL), the MIC [5] was 32 µM (≈ 89 µg/mL) and the MIC [6] was 8 µM (≈ 22.3 µg/mL). The MIC [7] was 8 µM (≈ 22.3 µg/mL).

`CC(C)C[C@H](NC(=O)[C@H](CC(C)C)NC(=O)[C@H](CCCCN)NC(=O)[C@H](CC(C)C)NC(=O)[C@H](CC(C)C)NC(=O)[C@H](CCCCN)NC(=O)[C@H](CCCCN)NC(=O)[C@H](CC(C)C)NC(=O)[C@H](CC(C)C)NC(=O)[C@H](CCCCN)NC(=O)[C@H](CC(C)C)NC(=O)[C@H](CC(C)C)NC(=O)[C@@H](N)CCCCN)C(=O)NCC(N)=O` [KLLKLLKKLLKLLG] showed an MIC [8] of no less than 100 µM.

`CC[C@H](C)[C@H](NC(=O)[C@@H](N)CC(C)C)C(=O)NCC(=O)N[C@@H](CC(C)C)C(=O)N[C@H](C(=O)N[C@@H](CO)C(=O)N[C@@H](CCCCN)C(=O)NCC(=O)N[C@H](C(=O)N[C@H]1CSSC[C@@H](C(=O)N[C@@H](CCCCN)C(=O)N[C@@H](CCCCN)C(=O)N[C@H](C(=O)N[C@@H](CC(C)C)C(=O)N[C@@H](CCCCN)C(=O)N[C@@H](CCC(N)=O)C(N)=O)C(C)C)NC(=O)[C@H](C(C)C)NC(=O)[C@H]([C@@H](C)O)NC(=O)[C@H](CCCCN)NC(=O)[C@H](C(C)C)NC(=O)[C@H](CC(C)C)NC(=O)[C@H](C(C)C)NC1=O)[C@@H](C)O)C(C)C` [LIGLVSKGTCVLVKTVCKKVLKQ] showed an MIC [9] greater than 9.6 µM, an MIC [10] greater than 9.6 µM and an MIC [11] greater than 9.6 µM. It also gave an MIC [12] of 9.6 µM (≈ 23.6 µg/mL), an MIC [5] greater than 9.6 µM and an MIC [13] of 9.6 µM (≈ 23.6 µg/mL). For the same compound, the MIC [14] was greater than 9.6 µM, the MIC [15] was 9.6 µM (≈ 23.6 µg/mL) and the MIC [16] was 9.6 µM (≈ 23.6 µg/mL). It also gave an MIC [17] of 9.6 µM (≈ 23.6 µg/mL), an MIC [18] of 9.6 µM (≈ 23.6 µg/mL) and an MIC [19] of 9.6 µM (≈ 23.6 µg/mL).

Work on `CC[C@H](C)[C@H](NC(=O)[C@H](CO)NC(=O)[C@@H]1CCCN1C(=O)[C@H](CC(C)C)NC(=O)[C@@H](NC(=O)[C@H](CO)NC(=O)CNC(=O)[C@H](CC(C)C)NC(=O)[C@@H](NC(=O)[C@H](CO)NC(=O)CNC(=O)[C@H](CC(C)C)NC(=O)[C@H](CC(C)C)NC(=O)CNC(=O)[C@H](CC(C)C)NC(=O)[C@@H](N)Cc1ccccc1)C(C)C)C(C)C)C(=O)N[C@@H](Cc1ccccc1)C(=O)N[C@@H](CCCCN)C(N)=O` [FLGLLGSVLGSVLPSIFK] yielded an MIC (Escherichia coli AB94012) of no less than 54.1 µM, an MIC [10] greater than 54.1 µM and an MIC [5] greater than 54.1 µM. For the same compound, the MIC [20] was greater than 54.1 µM, the MIC [21] was 6.77 µM (≈ 12.5 µg/mL) and the MIC [22] was 6.77 µM (≈ 12.5 µg/mL).

`C[C@H](N)C(=O)N[C@@H](Cc1ccccc1)C(=O)N[C@@H](Cc1c[nH]c2ccccc12)C(=O)N[C@@H](CCCCN)C(=O)N[C@@H](CCCCN)C(=O)N[C@@H](Cc1ccccc1)C(=O)N[C@@H](Cc1ccccc1)C(=O)N[C@@H](CCCCN)C(=O)N[C@@H](CCCCN)C(=O)N[C@@H](Cc1ccccc1)C(=O)N[C@@H](Cc1ccccc1)C(=O)N[C@@H](CCCCN)C(=O)N[C@@H](CO)C(=O)N[C@@H](C)C(=O)N[C@@H](CCCCN)C(=O)N[C@@H](CCCCN)C(=O)N[C@@H](Cc1ccccc1)C(=O)NCC(=O)O` [AFWKKFFKKFFKSAKKFG] gave an MIC (Escherichia coli D31) of 1.88 µM (≈ 4.27 µg/mL), an MIC [23] of 1.88 µM (≈ 4.27 µg/mL) and an MIC [24] of 1.88 µM (≈ 4.27 µg/mL). For the same compound, the MIC [25] was 1.88 µM (≈ 4.27 µg/mL) and the MIC [26] was 0.94 µM (≈ 2.13 µg/mL).

With `CC[C@H](C)[C@H](NC(=O)[C@H](CCCCN)NC(=O)[C@H](CCCN=C(N)N)NC(=O)[C@H](CC(C)C)NC(=O)[C@H](Cc1c[nH]c2ccccc12)NC(=O)[C@H](Cc1c[nH]c2ccccc12)NC(=O)[C@@H](N)Cc1c[nH]c2ccccc12)C(=O)N[C@@H](Cc1c[nH]c2ccccc12)C(N)=O` [WWWLRKIW] the MIC [10] was 8.8 µM (≈ 11.2 µg/mL), the MIC [27] was 12.5 µM (≈ 15.9 µg/mL) and the MIC [28] was 3.1 µM (≈ 3.94 µg/mL).

`CC[C@H](C)[C@H](NC(=O)[C@@H]1CCCN1C(=O)[C@H](CCCN=C(N)N)NC(=O)[C@H](CCCN=C(N)N)NC(=O)[C@H](Cc1c[nH]c2ccccc12)NC(=O)[C@@H](N)CCCN=C(N)N)C(=O)N[C@@H](CCCN=C(N)N)C(=O)N[C@@H](CCCN=C(N)N)C(=O)N[C@@H](CCCN=C(N)N)C(=O)N1CCC[C@H]1C(=O)N[C@H](C(=O)N[C@@H](CCCN=C(N)N)C(=O)N1CCC[C@H]1C(=O)N1CCC[C@H]1C(=O)N[C@@H](Cc1ccccc1)C(=O)N[C@@H](Cc1ccc(O)cc1)C(=O)N[C@@H](Cc1c[nH]c2ccccc12)C(=O)O)[C@@H](C)CC` [RWRRPIRRRPIRPPFYW] gave an MIC [9] of 2 µM (≈ 4.82 µg/mL), an MIC [29] of 4 µM (≈ 9.64 µg/mL) and an MIC (Escherichia coli BW25113) of 4 µM (≈ 9.64 µg/mL). The MIC (Escherichia coli) was 1.41 µM (≈ 3.41 µg/mL), the MIC [11] was 64 µM (≈ 154 µg/mL) and the MIC [5] was 32 µM (≈ 77.1 µg/mL). For the same compound, the MIC [30] was 32 µM (≈ 77.1 µg/mL).

`CC(C)C[C@H](NC(=O)[C@H](C)NC(=O)CNC(=O)[C@H](CC(C)C)NC(=O)[C@@H](N)Cc1ccccc1)C(=O)N[C@@H](Cc1c[nH]c2ccccc12)C(=O)N[C@@H](CC(N)=O)C(=O)N[C@H](C(=O)N[C@@H](CCCCN)C(=O)N[C@@H](CCCCN)C(=O)N[C@@H](CO)C(=O)N[C@H](C(=O)N[C@@H](Cc1ccccc1)C(N)=O)C(C)C)C(C)C` [FLGALWNVKKSVF] gave an MIC [31] of no less than 50 µM, an MIC (Candida albicans MDM8) of no less than 50 µM and an MIC [32] of no less than 50 µM. The MIC [33] was no less than 50 µM, the MIC (Escherichia coli SBS 363) was no less than 50 µM and the MIC (Micrococcus luteus A270) was no less than 50 µM. It also gave an MIC [34] of no less than 50 µM, an MIC [35] greater than 50 µM and an MIC [36] greater than 50 µM.
